Assay results reported in US20220411439A1, “POLYMORPHS OF A MACROCYCLIC KINASE INHIBITOR” (TURNING POINT THERAPEUTICS, INC., priority 2019, published 2022).
Read-outs that look alike come from different tables or passages of the source.

Key:
LYN = target: T1, LYN (Homo sapiens, UniProt P07948); assay: Biochemical kinase assay; conditions: 10 μM ATP
T1 construct: purchased Reaction Biology Corporation (contract assay)
Protocol: (§1) Specific kinase/substrate pairs along with required cofactors were prepared in reaction buffer; 20 mM Hepes pH 7.5, 10 mM MgCl2, 1 mM EGTA, 0.02% Brij35, 0.02 mg/ml BSA, 0.1 mM Na3VO4, 2 mM DTT, 1% DMSO. Compounds were delivered into the reaction, followed ˜20 minutes later by addition of a mixture of ATP (Sigma, St. Louis Mo.) and ^33P ATP (Perkin Elmer, Waltham Mass.) to a final concentration of 10 μM. Reactions were carried out at room temperature for 120 min, followed by spotting of the reactions onto P81 ion exchange filter paper (Whatman Inc., Piscataway, N.J.). Unbound phosphate was removed by extensive washing of filters in 0.75% phosphoric acid. […] IC50 values and curve fits were obtained using Prism (GraphPad Software).

RET = target: T2, RET (Homo sapiens, UniProt P07949); assay: Biochemical kinase assay; conditions: 10 μM ATP
T2 construct: purchased Reaction Biology Corporation (contract assay)
Protocol: as §1

RET-NCOA4 (PTC3) = target: T3, RET-NCOA4 (PTC3) (Homo sapiens, UniProt P07949); assay: Biochemical kinase assay; conditions: 10 μM ATP
T3 construct: NCOA4 fragment (fusion partner); purchased Reaction Biology Corporation (contract assay)
Protocol: as §1

SRC = target: T4, SRC (Homo sapiens, UniProt P12931); assay: Biochemical kinase assay; conditions: 10 μM ATP
T4 construct: purchased Reaction Biology Corporation (contract assay)
Protocol: as §1

YES/YES1 = target: T5, YES/YES1 (Homo sapiens, UniProt P07947); assay: Biochemical kinase assay; conditions: 10 μM ATP
T5 construct: purchased Reaction Biology Corporation (contract assay)
Protocol: as §1

Ba/F3 EML4-ALK = target: T6, Ba/F3 EML4-ALK (Homo sapiens, UniProt Q9UM73); assay: Cell proliferation assay (CellTiter-Glo); type: cell-based; conditions: anti-cell proliferation, 72 hours
T6 construct: fused on or other part: Q9HC35 (Echinoderm microtubule-associated protein-like 4)
Protocol: The EML4-ALK gene (variant 1) was synthesized at GenScript and cloned into pCDH-CMV-MCS-EF1-Puro plasmid (System Biosciences, Inc). Ba/F3-EML4-ALK wild type were generated by transducing Ba/F3 cells with lentivirus containing EML4-ALK wide type. Stable cell lines were selected by puromycin treatment, followed by IL-3 withdrawal. Briefly, 5×10^6 Ba/F3 cells were transduced with lentivirus supernatant in the presence of 8 μg/mL protamine sulfate. The transduced cells were subsequently selected with 1 μg/mL puromycin in the presence of IL3-containing medium RPMI1640, plus 10% FBS. After 10-12 days of selection, the surviving cells were further selected for IL3 independent growth.
(§2) Two thousand cells per well were seeded in 384 well white plate for 24 hrs, and then treated with compounds for 72 hours (37° C., 5% CO2). Cell proliferation was measured using CellTiter-Glo luciferase-based ATP detection assay (Promega) following the manufactures's protocol. IC50 determinations were performed using GraphPad Prism software (GraphPad, Inc., San Diego, Calif.).

KG-1 = assay: Cell proliferation assay (CellTiter-Glo); type: cell-based; conditions: Homo sapiens, anti-cell proliferation, 72 hours
Protocol: as §2, with “Human medulla thyroid carcinoma cell line TT (containing RET M918T mutation) and acute myelogenous cell line KG-1 were purchased from ATCC. Human colon cancer cell line KM12 (containing TPM3-TRKA) was obtained from NCI. Two” for “Two”

KM12 cell (TPM3-TRKA) = assay: Cell proliferation assay (CellTiter-Glo); type: cell-based; conditions: Homo sapiens, anti-cell proliferation, 72 hours
Protocol: as §2, with “Human medulla thyroid carcinoma cell line TT (containing RET M918T mutation) and acute myelogenous cell line KG-1 were purchased from ATCC. Human colon cancer cell line KM12 (containing TPM3-TRKA) was obtained from NCI. Two” for “Two”

TT cell (RET M918T) = assay: Cell proliferation assay (CellTiter-Glo); type: cell-based; conditions: Homo sapiens, anti-cell proliferation, 72 hours
Protocol: as §2, with “Human medulla thyroid carcinoma cell line TT (containing RET M918T mutation) and acute myelogenous cell line KG-1 were purchased from ATCC. Human colon cancer cell line KM12 (containing TPM3-TRKA) was obtained from NCI. Two” for “Two”

Ba/F3 KIF5B-RET [1] = target: T7, Ba/F3 KIF5B-RET (Homo sapiens, UniProt P07949); assay: Cell proliferation assay (CellTiter-Glo); type: cell-based; conditions: anti-cell proliferation, 72 hours; read-out: Ba/F3 KIF5B-RET IC50
T7 construct: Ba/F3 KIF5B-RET IC50 (nM); other: anti-cell proliferation, 72 hours; fused on or other part: P33176 (Kinesin-1 heavy chain)
Excerpt: (§3) The KIF5B-RET gene was synthesized at GenScript and cloned into pCDH-CMV-MCS-EF1-Puro plasmid (System Biosciences, Inc). KIF5B-RET point mutation V804M and G810C were generated at GenScript by PCR and confirmed by sequencing. Ba/F3-KIF5B-RET wild type and mutant were generated by transducing Ba/F3 cells with lentivirus containing KIF5B-RET wide type or mutant. Stable cell lines were selected by puromycin treatment, followed by IL-3 withdrawal. Briefly, 5×10^6 Ba/F3 cells were transduced with lentivirus supernatant in the presence of 8 μg/mL protamine sulfate. The transduced cells were subsequently selected with 1 μg/mL puromycin in the presence of IL3-containing medium RPMI1640, plus 10% FBS. After 10-12 days of selection, the surviving cells were further selected for […] independent growth.
as §2

Ba/F3 KIF5B-RET_G810C = target: T8, Ba/F3 KIF5B-RET_G810C (Homo sapiens, UniProt P07949, G810C, cells depend on it); assay: Cell proliferation assay (CellTiter-Glo); type: cell-based; conditions: anti-cell proliferation, 72 hours; read-out: Ba/F3 KIF5B-RET_G810C IC50
T8 construct: fused on or other part: P33176 (Kinesin-1 heavy chain)
Excerpt: as §3, §2

Ba/F3 KIF5B-RET_V804M = target: T9, Ba/F3 KIF5B-RET_V804M (Homo sapiens, UniProt P07949, V804M, cells depend on it); assay: Cell proliferation assay (CellTiter-Glo); type: cell-based; conditions: anti-cell proliferation, 72 hours; read-out: Ba/F3 KIF5B-RET_V804M IC50
T9 construct: fused on or other part: P33176 (Kinesin-1 heavy chain)
Excerpt: as §3, §2

Ba/F3 KIF5B-RET [2] = target: T10, Ba/F3 KIF5B-RET (Homo sapiens, UniProt P07949, cells depend on it, form not given); assay: Compound I anti-cell proliferation comparison (FIG. 5A, 5B); type: cell-based; conditions: for GI50: read-out: IC50 (the source's name)
T10 construct: IC50 (nM); other: Experiment 1; other: Experiment 2; fused on or other part: P33176 (Kinesin-1 heavy chain)
Excerpt: as §3, §2

Ba/F3 KIF5B-RET G810C = target: T11, Ba/F3 KIF5B-RET G810C (Homo sapiens, UniProt P07949, G810C); assay: RET-G810C autophosphorylation (Y905) by immunoblotting in Ba/F3 engineered cells; type: cell-based; conditions: 4 hours incubation, read-out: IC50, RET-G810C phosphorylation at residue Y905
T11 construct: KIF5B fragment (fusion partner); expressed in transfected cells; host or cells: Ba/F3 cells, lentiviral transduction (pCDH-CMV-MCS-EF1-Puro); the other entry of the earlier key: KIF5B (P33176, Kinesin-1 heavy chain)
T11 sequence (P07949 713-1063 G810C limits assumed): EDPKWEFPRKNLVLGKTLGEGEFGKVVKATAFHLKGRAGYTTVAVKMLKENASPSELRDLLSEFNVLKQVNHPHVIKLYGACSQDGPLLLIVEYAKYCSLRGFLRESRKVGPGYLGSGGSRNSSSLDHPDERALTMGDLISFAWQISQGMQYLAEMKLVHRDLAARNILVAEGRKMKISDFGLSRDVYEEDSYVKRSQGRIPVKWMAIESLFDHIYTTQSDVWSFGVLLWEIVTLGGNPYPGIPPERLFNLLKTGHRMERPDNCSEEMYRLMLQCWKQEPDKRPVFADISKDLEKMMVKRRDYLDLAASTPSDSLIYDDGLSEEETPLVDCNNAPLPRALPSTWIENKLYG

T10 sequence (P07949 whole entry G810C, form open, the tested form may be a part): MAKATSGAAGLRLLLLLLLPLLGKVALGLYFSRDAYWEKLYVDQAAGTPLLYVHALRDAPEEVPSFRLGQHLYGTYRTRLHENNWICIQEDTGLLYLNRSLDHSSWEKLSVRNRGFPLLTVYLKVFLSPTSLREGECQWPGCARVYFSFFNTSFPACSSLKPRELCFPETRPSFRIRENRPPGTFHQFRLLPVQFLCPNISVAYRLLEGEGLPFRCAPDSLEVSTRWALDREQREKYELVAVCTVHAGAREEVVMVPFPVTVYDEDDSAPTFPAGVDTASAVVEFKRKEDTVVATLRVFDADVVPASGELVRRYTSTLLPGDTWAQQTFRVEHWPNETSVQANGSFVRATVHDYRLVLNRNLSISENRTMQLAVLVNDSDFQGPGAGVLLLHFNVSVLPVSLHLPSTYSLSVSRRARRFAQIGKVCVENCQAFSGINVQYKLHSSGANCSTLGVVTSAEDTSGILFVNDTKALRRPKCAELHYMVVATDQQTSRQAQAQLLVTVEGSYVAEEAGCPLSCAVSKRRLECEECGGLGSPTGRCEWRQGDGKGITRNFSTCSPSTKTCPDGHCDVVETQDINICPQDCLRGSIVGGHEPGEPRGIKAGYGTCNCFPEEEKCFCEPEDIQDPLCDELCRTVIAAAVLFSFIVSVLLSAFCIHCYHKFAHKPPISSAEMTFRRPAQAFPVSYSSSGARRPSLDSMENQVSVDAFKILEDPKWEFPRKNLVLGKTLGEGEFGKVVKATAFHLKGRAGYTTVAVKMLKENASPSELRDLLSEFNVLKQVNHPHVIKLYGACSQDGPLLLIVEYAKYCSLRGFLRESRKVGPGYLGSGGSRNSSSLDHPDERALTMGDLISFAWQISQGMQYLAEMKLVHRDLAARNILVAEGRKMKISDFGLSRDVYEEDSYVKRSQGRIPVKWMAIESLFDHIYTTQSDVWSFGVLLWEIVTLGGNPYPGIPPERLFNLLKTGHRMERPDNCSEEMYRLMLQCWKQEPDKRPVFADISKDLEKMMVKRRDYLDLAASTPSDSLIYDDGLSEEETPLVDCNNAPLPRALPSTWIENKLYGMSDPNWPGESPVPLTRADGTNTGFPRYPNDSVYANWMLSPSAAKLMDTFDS
T1 sequence (P07948 whole entry): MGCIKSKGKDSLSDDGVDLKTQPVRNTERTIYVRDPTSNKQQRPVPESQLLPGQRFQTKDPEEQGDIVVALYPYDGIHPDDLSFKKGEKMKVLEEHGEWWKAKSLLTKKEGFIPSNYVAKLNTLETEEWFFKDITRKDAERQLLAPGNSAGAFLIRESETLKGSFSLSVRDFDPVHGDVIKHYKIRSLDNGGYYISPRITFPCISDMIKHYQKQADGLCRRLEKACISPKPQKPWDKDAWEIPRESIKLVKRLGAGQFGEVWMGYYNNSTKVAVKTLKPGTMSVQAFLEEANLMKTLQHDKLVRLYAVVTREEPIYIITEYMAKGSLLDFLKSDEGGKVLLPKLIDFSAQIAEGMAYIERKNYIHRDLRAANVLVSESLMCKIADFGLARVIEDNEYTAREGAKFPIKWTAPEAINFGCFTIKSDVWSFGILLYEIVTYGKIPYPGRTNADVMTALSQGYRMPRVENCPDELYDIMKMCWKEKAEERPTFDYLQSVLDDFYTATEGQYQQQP
T6 sequence (Q9UM73 whole entry, change not shown, the tested form may be a part): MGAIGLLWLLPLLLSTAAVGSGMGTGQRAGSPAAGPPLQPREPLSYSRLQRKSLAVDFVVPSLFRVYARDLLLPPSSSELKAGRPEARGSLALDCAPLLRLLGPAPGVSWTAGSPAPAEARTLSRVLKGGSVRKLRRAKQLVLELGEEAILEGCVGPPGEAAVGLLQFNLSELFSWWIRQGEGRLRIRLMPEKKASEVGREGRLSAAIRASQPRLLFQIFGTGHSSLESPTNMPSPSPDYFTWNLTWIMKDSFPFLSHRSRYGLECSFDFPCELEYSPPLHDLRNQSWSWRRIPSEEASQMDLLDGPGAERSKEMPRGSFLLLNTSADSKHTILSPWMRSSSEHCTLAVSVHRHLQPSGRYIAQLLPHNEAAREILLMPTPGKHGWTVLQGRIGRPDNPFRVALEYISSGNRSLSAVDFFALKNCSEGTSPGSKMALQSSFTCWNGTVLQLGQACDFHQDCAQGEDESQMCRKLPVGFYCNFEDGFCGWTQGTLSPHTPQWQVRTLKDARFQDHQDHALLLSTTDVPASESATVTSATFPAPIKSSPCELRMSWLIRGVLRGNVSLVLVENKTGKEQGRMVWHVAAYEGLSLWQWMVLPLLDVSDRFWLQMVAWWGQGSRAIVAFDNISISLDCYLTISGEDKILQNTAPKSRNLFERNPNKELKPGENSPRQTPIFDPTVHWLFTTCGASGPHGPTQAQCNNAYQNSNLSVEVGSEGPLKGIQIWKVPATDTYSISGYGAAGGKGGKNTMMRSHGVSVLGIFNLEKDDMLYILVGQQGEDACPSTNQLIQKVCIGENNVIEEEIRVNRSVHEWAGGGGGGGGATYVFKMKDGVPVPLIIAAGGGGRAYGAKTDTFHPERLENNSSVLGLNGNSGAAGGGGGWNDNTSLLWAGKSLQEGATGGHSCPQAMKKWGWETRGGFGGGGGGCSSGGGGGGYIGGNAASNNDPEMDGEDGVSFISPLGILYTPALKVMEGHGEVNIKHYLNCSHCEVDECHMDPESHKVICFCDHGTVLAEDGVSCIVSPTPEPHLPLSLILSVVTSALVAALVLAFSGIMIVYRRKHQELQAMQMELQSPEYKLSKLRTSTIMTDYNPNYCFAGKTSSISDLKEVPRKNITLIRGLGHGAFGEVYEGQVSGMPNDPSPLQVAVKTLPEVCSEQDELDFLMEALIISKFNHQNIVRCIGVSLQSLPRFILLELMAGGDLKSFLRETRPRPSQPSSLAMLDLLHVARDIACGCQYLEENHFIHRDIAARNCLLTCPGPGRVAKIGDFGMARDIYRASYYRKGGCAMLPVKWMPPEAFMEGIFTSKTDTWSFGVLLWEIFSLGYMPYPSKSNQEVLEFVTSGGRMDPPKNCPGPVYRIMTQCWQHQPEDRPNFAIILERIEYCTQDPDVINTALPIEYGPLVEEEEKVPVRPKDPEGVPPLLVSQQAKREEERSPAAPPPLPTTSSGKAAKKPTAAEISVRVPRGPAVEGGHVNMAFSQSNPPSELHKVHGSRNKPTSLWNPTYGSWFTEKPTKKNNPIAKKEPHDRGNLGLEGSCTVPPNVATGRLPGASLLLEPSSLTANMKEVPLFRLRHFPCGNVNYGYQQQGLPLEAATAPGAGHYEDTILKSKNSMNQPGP
T8 sequence (P07949 whole entry G810C, the tested form may be a part): as the sequence (P07949 whole entry G810C, form open, the tested form may be a part) above
T2 sequence (P07949 29-1114): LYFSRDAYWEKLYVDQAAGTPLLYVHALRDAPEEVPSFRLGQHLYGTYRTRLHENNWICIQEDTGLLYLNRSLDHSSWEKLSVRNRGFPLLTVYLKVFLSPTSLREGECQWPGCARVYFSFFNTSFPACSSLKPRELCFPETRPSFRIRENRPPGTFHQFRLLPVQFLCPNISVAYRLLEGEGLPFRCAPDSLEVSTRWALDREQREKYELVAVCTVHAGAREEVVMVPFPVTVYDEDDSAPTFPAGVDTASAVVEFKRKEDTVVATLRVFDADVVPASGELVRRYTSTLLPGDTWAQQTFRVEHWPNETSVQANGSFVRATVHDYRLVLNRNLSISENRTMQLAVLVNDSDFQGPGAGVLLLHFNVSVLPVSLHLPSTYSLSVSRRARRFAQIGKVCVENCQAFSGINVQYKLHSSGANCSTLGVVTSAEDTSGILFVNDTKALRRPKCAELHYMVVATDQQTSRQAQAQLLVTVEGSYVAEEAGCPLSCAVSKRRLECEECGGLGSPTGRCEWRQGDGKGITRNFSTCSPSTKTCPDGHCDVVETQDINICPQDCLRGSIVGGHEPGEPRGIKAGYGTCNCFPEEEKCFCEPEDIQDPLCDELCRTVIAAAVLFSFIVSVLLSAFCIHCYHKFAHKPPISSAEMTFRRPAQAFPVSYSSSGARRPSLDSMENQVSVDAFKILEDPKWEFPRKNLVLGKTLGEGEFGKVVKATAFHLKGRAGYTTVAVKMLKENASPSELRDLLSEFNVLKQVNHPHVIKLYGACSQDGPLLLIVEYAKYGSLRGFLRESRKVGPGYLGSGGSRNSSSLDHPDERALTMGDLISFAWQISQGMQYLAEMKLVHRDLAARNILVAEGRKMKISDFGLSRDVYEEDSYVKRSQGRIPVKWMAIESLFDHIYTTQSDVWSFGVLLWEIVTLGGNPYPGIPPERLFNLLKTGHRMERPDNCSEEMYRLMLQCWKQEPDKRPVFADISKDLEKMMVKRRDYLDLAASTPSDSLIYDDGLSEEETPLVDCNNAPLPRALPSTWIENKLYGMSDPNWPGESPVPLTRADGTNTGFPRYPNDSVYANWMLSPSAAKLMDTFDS
T7 sequence (P07949 whole entry, change not shown, the tested form may be a part): as the sequence (P07949 whole entry G810C, form open, the tested form may be a part) above, with C810G counted along it
T9 sequence (P07949 whole entry V804M, the tested form may be a part): as the sequence (P07949 whole entry G810C, form open, the tested form may be a part) above, with V804M, C810G counted along it

IC50 (LYN): 2 nM
IC50 (RET): 1 nM
IC50 (RET-NCOA4 (PTC3)): 0.7 nM
IC50 (SRC): 1.5 nM
IC50 (YES/YES1): 2.6 nM
GI50 (Ba/F3 EML4-ALK): 211 nM
GI50 (Ba/F3 KIF5B-RET [1]): 0.25 nM
GI50 (Ba/F3 KIF5B-RET_G810C): < 15 nM
GI50 (Ba/F3 KIF5B-RET_V804M): 1000 nM
IC75 (Ba/F3 KIF5B-RET [2]; Experiment 1): 28.8 nM
IC90 (Ba/F3 KIF5B-RET [2]; Experiment 1): 86.4 nM
GI50 (Ba/F3 KIF5B-RET [2]; Experiment 1): 9.6 nM
IC75 (Ba/F3 KIF5B-RET [2]; Experiment 2): 39.9 nM
IC90 (Ba/F3 KIF5B-RET [2]; Experiment 2): 120 nM
GI50 (Ba/F3 KIF5B-RET [2]; Experiment 2): 13.3 nM
IC50 (Ba/F3 KIF5B-RET G810C): 1 to 3 nM
Structure (SMILES): C[C@H]1CNC(=O)c2cnn3cc4c(nc23)N(Cc2cc(F)cnc2O1)[C@@H]1CCC[C@@H]1O4 [Compound I, (3aR,11S,20aS)-7-fluoro-11-methyl-2,3,3a,12,13,20a-hexahydro-1H,5H-17,19-(metheno)cyclopenta[5,6][1,4]oxazino[3,4-i]pyrazolo[4,3-f]pyrido[3,2-l][1,4,8,10]oxatriazacyclotridecin-14(11H)-one]
IC50 (KG-1): 131 nM
IC50 (KM12 cell (TPM3-TRKA)): 3 nM
IC50 (TT cell (RET M918T)): < 0.5 nM
